Source: patent publication US11160887B2, “Compositions for use in diagnosing and treating melanoma, including metastatic melanoma and methods related to same” (UNM RAINFOREST INNOVATIONS, priority 2008, dated 2021)

How the values were obtained:
[1] = system: B16/F10 pulmonary melanoma metastases; format: in vivo, mouse
Experimental: Metastatic Melanoma Imaging: A pulmonary metastatic melanoma-bearing mouse was used for [^18F]FDG PET imaging 16 days after the cell injection and used for ^111In-DOTA-GlyGlu-CycMSH SPECT/CT imaging on next day (a time interval of 26 h) to compare the difference in detection efficiency between [^18F]FDG and ^111In-DOTA-GlyGlu-CycMSH. The mouse was injected with 35.15 MBq of commercial [^18F]FDG (Biotech, N. Mex.) via the tail vein. At 1 h post-injection, the mouse was anesthetized with 1.5% isoflurane and placed in the prone position near the center of the field of view of small animal PET (LabPET™) (Gamma Medica-Ideas, Sherbrooke, Quebec). A 30-min static scan was acquired, and the image was reconstructed by maximum likelihood estimation method (MLEM). The mouse was returned to the cage for recovery after the ^18F-FDG PET imaging study was completed. The same mouse was injected with 24.05 MBq of ^111In-DOTA-GlyGlu-CycMSH via the tail vein 24 h after the ^18F-FDG PET imaging study. The mouse was anesthetized with 1.5% isoflurane for small animal SPECT/CT (Nano-SPECT/CT®, Bioscan) imaging 2 h post-injection. The 6-min CT imaging was immediately followed by the focused SPECT imaging of lung. The SPECT scans of 24 projections were acquired and total acquisition time was 45 min. After the focused lung imaging, the mouse was sacrificed with CO2 inhalation for whole-body SPECT/CT imaging. The 9-min CT imaging was immediately followed by the SPECT imaging of whole-body. Reconstructed data from SPECT and CT were visualized and co-registered using InVivoScope (Bioscan, Washington D.C.). Necropsy analysis of the mouse was performed to confirm the pulmonary metastatic melanoma lesions after the SPECT/CT imaging studies were completed. To monitor the development of pulmonary melanoma metstases with ^111In-DOTA-GlyGlu-CycMSH, a pulmonary metastatic melanoma-bearing mouse was injected with 10.36 MBq of ^111In-DOTA-GlyGlu-CycMSH through the tail vein for small animal SPECT/CT imaging 20 days after the cell injection. […]

[2] = system: melanoma metastases smaller than 5 mm; settings: literature (5); cited from earlier work

## 2-[^18F]fluoro-2-deoxy-D-glucose [[^18F]FDG]
[1]; SPECT/CT 2 h post-injection (111In peptide) or PET 1 h post-injection ([18F]FDG), same mouse, 16-17 days post the cell injection
  detection of pulmonary metastatic melanoma lesions by imaging: failed in identifying the pulmonary melanoma metastases
[1]; mouse, in vivo
  accumulation of activity in normal organs in whole-body image: much higher normal organ accumulation
[2]
  melanoma metastases smaller than 5 mm detected by PET imaging: 23%
